Data as given in ChEMBL document CHEMBL1201862, “PubChem BioAssay data set” (2004).
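All cell lines were grown in 96-well plates and treated with compound for 48 hours. Abbreviation: GI50, concentration required for 50% inhibition of growth.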 Active and inactive are the calls of the source. Rule as the data show it: active = GI50 up to about 1.1 µM and inactive = higher.

Assays:
Assay in all cases: inhibition of tumour cell growth, NCI panel, 48 h
SK-MEL-2 = test system: SK-MEL-2
Malme-3M = test system: Malme-3M
OVCAR-8 = test system: OVCAR-8
CCRF-CEM = test system: CCRF-CEM
SR = test system: SR
A549 = test system: A549
Hs-578T = test system: Hs-578T
HCT-15 = test system: HCT-15
MDA-MB-231 = test system: MDA-MB-231
ACHN = test system: ACHN
T47D = test system: T47D
HCC 2998 = test system: HCC 2998
HOP-62 = test system: HOP-62
MDA-N = test system: MDA-N
U-251 = test system: U-251
OVCAR-5 = test system: OVCAR-5
DU-145 = test system: DU-145
MDA-MB-435 = test system: MDA-MB-435
HL-60 = test system: HL-60
RPMI-8226 = test system: RPMI-8226
LOX IMVI = test system: LOX IMVI
NCI-H522 = test system: NCI-H522
MCF7 = test system: MCF7
SK-OV-3 = test system: SK-OV-3
UACC-257 = test system: UACC-257
MOLT-4 = test system: MOLT-4
COLO 205 = test system: COLO 205
SNB-75 = test system: SNB-75
UO-31 = test system: UO-31
RXF 393 = test system: RXF 393
NCI-H23 = test system: NCI-H23
786-0 = test system: 786-0
NCI-H226 = test system: NCI-H226
M14 = test system: M14
SK-MEL-5 = test system: SK-MEL-5
OVCAR-4 = test system: OVCAR-4
PC-3 = test system: PC-3
SK-MEL-28 = test system: SK-MEL-28
UACC-62 = test system: UACC-62
IGROV-1 = test system: IGROV-1
TK-10 = test system: TK-10
SN12C = test system: SN12C
NCI/ADR-RES = test system: NCI/ADR-RES
HOP-92 = test system: HOP-92
HCT-116 = test system: HCT-116
OVCAR-3 = test system: OVCAR-3
SF-539 = test system: SF-539
K562 = test system: K562
SF-295 = test system: SF-295
SW-620 = test system: SW-620
SNB-19 = test system: SNB-19
KM12 = test system: KM12
A498 = test system: A498
SF-268 = test system: SF-268
HT-29 = test system: HT-29
BT-549 = test system: BT-549
CAKI-1 = test system: CAKI-1
NCI-H460 = test system: NCI-H460
EKVX = test system: EKVX

For `C=C[C@H]1CN2CCc3c([nH]c4c([C@@H]5CCCN5C)c(O)ccc34)[C@@H]2C[C@@H]1C[C@H]1c2[nH]c3ccccc3c2CCN1C`, the GI50 (SK-MEL-2) was 1850 nM (inactive), the GI50 (Malme-3M) was 1850 nM (inactive) and the GI50 (OVCAR-8) was 1400 nM (inactive). For the same compound, the GI50 (CCRF-CEM) was 4.27 nM (active), the GI50 (SR) was 256 nM (active) and the GI50 (A549) was 1500 nM (inactive). The GI50 (Hs-578T) was 1670 nM (inactive), the GI50 (HCT-15) was 1280 nM and the GI50 (MDA-MB-231) was 1760 nM (inactive). The GI50 (ACHN) was 1650 nM (inactive), the GI50 (T47D) was 1950 nM (inactive) and the GI50 (HCC 2998) was 1720 nM (inactive). For the same compound, the GI50 (HOP-62) was 1350 nM (inactive), the GI50 (MDA-N) was 1670 nM (inactive) and the GI50 (U-251) was 1380 nM (inactive). For the same compound, the GI50 (OVCAR-5) was 1790 nM (inactive), the GI50 (DU-145) was 1690 nM (inactive) and the GI50 (MDA-MB-435) was 1510 nM (inactive). The GI50 (HL-60) was 524 nM (active), the GI50 (RPMI-8226) was 478 nM (active) and the GI50 (LOX IMVI) was 1390 nM (inactive). For the same compound, the GI50 (NCI-H522) was 1850 nM (inactive), the GI50 (MCF7) was 1960 nM (inactive) and the GI50 (SK-OV-3) was 1700 nM (inactive). The GI50 (UACC-257) was 1910 nM (inactive), the GI50 (MOLT-4) was 692 nM (active) and the GI50 (COLO 205) was 1610 nM (inactive). The GI50 (SNB-75) was 1220 nM (inactive), the GI50 (UO-31) was 1630 nM (inactive) and the GI50 (RXF 393) was 274 nM (active). For the same compound, the GI50 (NCI-H23) was 1820 nM (inactive), the GI50 (786-0) was 1400 nM (inactive) and the GI50 (NCI-H226) was 2050 nM (inactive). For the same compound, the GI50 (M14) was 1090 nM (active), the GI50 (SK-MEL-5) was 1570 nM (inactive) and the GI50 (OVCAR-4) was 1710 nM (inactive). The GI50 (PC-3) was 1470 nM (inactive), the GI50 (SK-MEL-28) was 1790 nM (inactive) and the GI50 (UACC-62) was 1830 nM (inactive). For the same compound, the GI50 (IGROV-1) was 1320 nM (inactive), the GI50 (TK-10) was 1570 nM (inactive) and the GI50 (SN12C) was 1820 nM (inactive). For the same compound, the GI50 (NCI/ADR-RES) was 1850 nM (inactive), the GI50 (HOP-92) was 1400 nM (inactive) and the GI50 (HCT-116) was 366 nM (active). The GI50 (OVCAR-3) was 1640 nM (inactive), the GI50 (SF-539) was 1640 nM (inactive) and the GI50 (K562) was 211 nM (active). For the same compound, the GI50 (SF-295) was 1570 nM (inactive), the GI50 (SW-620) was 1130 nM (inactive) and the GI50 (SNB-19) was 1640 nM (inactive). The GI50 (KM12) was 1470 nM (inactive), the GI50 (A498) was 1850 nM (inactive) and the GI50 (SF-268) was 1740 nM (inactive). The GI50 (HT-29) was 1280 nM (inactive), the GI50 (BT-549) was 1470 nM (inactive) and the GI50 (CAKI-1) was 1710 nM (inactive). The GI50 (NCI-H460) was 1390 nM (inactive).

`C/C=C(\C)C(=O)OC1C(C)=C2C(C1OC(=O)CCCC)C(C)(OC(C)=O)CC(OC(=O)CCCC)C1(O)C2OC(=O)C1(C)O` (stereo not given) was tested, and the GI50 (SK-MEL-2) was 480 nM (active), the GI50 (OVCAR-8) was 4430 nM (inactive) and the GI50 (CCRF-CEM) was 1740 nM (inactive). For the same compound, the GI50 (SR) was 951 nM (active), the GI50 (A549) was 1030 nM (active) and the GI50 (Hs-578T) was 625 nM (active). For the same compound, the GI50 (HCT-15) was 21000 nM, the GI50 (MDA-MB-231) was 625 nM (active) and the GI50 (ACHN) was 4800 nM (inactive). For the same compound, the GI50 (T47D) was 6700 nM (inactive), the GI50 (HCC 2998) was 3240 nM (inactive) and the GI50 (HOP-62) was 431 nM (active). For the same compound, the GI50 (MDA-N) was 437 nM (active), the GI50 (U-251) was 605 nM (active) and the GI50 (OVCAR-5) was 2210 nM (inactive). For the same compound, the GI50 (DU-145) was 3710 nM (inactive), the GI50 (MDA-MB-435) was 501 nM (active) and the GI50 (HL-60) was 32.4 nM (active). For the same compound, the GI50 (RPMI-8226) was 267 nM (active), the GI50 (LOX IMVI) was 439 nM (active) and the GI50 (NCI-H522) was 362 nM (active). The GI50 (MCF7) was 394 nM (active), the GI50 (SK-OV-3) was 4110 nM (inactive) and the GI50 (UACC-257) was 9460 nM (inactive). The GI50 (MOLT-4) was 1460 nM (inactive), the GI50 (COLO 205) was 891 nM (active) and the GI50 (SNB-75) was 828 nM (active). For the same compound, the GI50 (UO-31) was 15400 nM (inactive), the GI50 (RXF 393) was 598 nM (active) and the GI50 (NCI-H23) was 1140 nM (inactive). The GI50 (786-0) was 982 nM (active), the GI50 (NCI-H226) was 1190 nM (inactive) and the GI50 (M14) was 452 nM (active). The GI50 (SK-MEL-5) was 1730 nM (inactive), the GI50 (EKVX) was 8220 nM (inactive) and the GI50 (OVCAR-4) was 1860 nM (inactive). For the same compound, the GI50 (PC-3) was 491 nM (active), the GI50 (SK-MEL-28) was 893 nM (active) and the GI50 (UACC-62) was 1570 nM (inactive). For the same compound, the GI50 (IGROV-1) was 6850 nM (inactive), the GI50 (TK-10) was 13000 nM (inactive) and the GI50 (SN12C) was 2590 nM (inactive). For the same compound, the GI50 (NCI/ADR-RES) was 36900 nM (inactive), the GI50 (HOP-92) was 746 nM (active) and the GI50 (HCT-116) was 525 nM (active). The GI50 (OVCAR-3) was 925 nM (active), the GI50 (SF-539) was 944 nM (active) and the GI50 (K562) was 2200 nM (inactive). For the same compound, the GI50 (SF-295) was 802 nM (active), the GI50 (SW-620) was 501 nM (active) and the GI50 (SNB-19) was 410 nM (active). The GI50 (KM12) was 776 nM (active), the GI50 (A498) was 6470 nM (inactive) and the GI50 (HT-29) was 736 nM (active). The GI50 (BT-549) was 8710 nM (inactive), the GI50 (CAKI-1) was 5130 nM (inactive) and the GI50 (NCI-H460) was 792 nM (active).
